Consider 1 molecule from patent US12048720B2, “Compositions comprising bacterial strains” (CJ BIOSCIENCE, INC., priority 2017, dated 2024).

The test system of the assay is SH-SY5Y neuroblastoma cells. Briefly: Neuroprotection / cell viability of differentiated SH-SY5Y neuroblastoma cells with or without MPP (CCK-8). It counts as cell-based, human. To be noted: RA-differentiated SHSY-5Y cells treated with MPP+, FIG. 11. As for the experimental part: Neuroblastoma cells were treated with compositions comprising bacterial strains according to the invention. The SH-SY5Y neuroblastoma cells used are dopamine producing and well-established as an in vitro model for studying neurodegenerative diseases. The ability of the bacterial strains to increase neuroproliferation was observed. The neuroblastoma cells were treated also treated dopaminergic neurotoxin 1-methyl-4-phenylpyridinium (MPP), which induces permanent symptoms of Parkinson's disease in neuroblastoma cells. The ability of the bacterial strains to act as a neuroprotectant against MPP was investigated.
SH-SY5Y neuroblastoma cells were purchased from ECCACC (Cat. no: 94030304) and were grown in MEM (Sigma Aldrich, cat n. M2279) supplemented with Nutrient Mixture F-12 Ham (Sigma Aldrich, cat n. N4888).
Once grown the SH-SY5Y neuroblastoma cells were plated on 96-well plate at 11,000 cells/well and incubated for 2 days. […] Cell viability was measured by using CCK-8 reagent (Sigma Aldrich, Cell Counting Kit—8, cat. n. 96992-3000TESTS-F) and read at 450 nm wavelength.
RA-differentiated SHSY-5Y cells were treated with MPP+, the active metabolite of MPTP, a chemical widely used to mimic in vitro and in vivo some of the features of PD pathology. Cell viability was measured as the rate of mitochondria respiration (FIG. 11).

As to `O=c1c(O)c(-c2ccc(O)c(O)c2)oc2cc(O)cc(O)c12` [quercetin], the “protection compared to YCFA-MPP+ treated sample” value was “about 20%”.
